{"source": "patent US11066482B2", "about": "“Specific plasmin inactivation by anticatalytic antibody” (priority 2017, dated 2021)", "molecules": {"B1": {"name": "mouse Fab: Fab fragment of the Pi lacking the Fc domain (antibody, V domains shown)", "VH": "EVKLLESGGGLVQPGGSLKLSCAASGFDFSRYWMSWVRQAPGKGLEWIGEINPDSSTINYTPSLKDKFIISRDNAKNSLYLQMSKVRSEDTALYYCASYCGYSYDALDCWGQGTSVTVSS", "VL": "DIQMTQSPSSLSASLGGKVSITCKASQDINKYISWYQHKPGKGPRLLIHYTSTLQPGIPSRFSGSGSGRDYSFSISNLEPEDIATYYCLQYDNLYTFGGGTKLEIK"}}, "key": {"[1]": {"molecular_target": "plasmin-mediated cleavage of factor V (Homo sapiens, UniProt P00747)", "sequence (P00747 97-580 limits assumed)": "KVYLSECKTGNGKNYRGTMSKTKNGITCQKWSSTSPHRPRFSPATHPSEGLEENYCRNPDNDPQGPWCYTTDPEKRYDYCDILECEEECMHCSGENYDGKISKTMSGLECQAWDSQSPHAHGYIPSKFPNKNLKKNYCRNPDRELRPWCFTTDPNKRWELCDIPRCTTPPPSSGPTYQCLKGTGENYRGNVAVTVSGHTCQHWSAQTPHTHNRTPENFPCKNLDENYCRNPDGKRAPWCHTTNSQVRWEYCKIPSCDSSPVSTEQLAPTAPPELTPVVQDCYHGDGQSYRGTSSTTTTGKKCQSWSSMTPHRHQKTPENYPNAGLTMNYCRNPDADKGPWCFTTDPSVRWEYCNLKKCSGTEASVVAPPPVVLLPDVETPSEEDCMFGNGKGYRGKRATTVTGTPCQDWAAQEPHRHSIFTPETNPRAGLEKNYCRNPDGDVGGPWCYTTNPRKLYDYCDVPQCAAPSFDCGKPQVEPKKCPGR", "sequence (P00747 581-810 limits assumed)": "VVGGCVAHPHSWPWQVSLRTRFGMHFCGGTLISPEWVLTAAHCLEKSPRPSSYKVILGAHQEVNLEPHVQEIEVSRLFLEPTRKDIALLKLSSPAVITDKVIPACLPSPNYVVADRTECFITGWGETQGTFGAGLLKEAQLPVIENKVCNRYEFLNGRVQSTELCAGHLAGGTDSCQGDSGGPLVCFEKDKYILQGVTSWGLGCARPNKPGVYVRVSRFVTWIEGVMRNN", "test": "Factor V cleavage by plasmin, SDS-PAGE", "type": "biochemical", "details": "EACA 1 mM or Pi 5 ug, 1 hr RT", "method": "FIGS. 4A-4D show comparative inhibition of factor V cleavage and human clot fibrinolysis (dissolution) by Pi, EACA and a2AP. […] The relative migration of molecular weight standards is shown (kDa). […] Human plasma was clotted with CaCl2 (10 mM) and thrombin (1 U/ml) in the presence of trace amounts of 1251 fibrinogen for 1 h at 37 deg. C. After washing in 1 ml of TBS pH 7.4, tPA (5 nM) was added in the presence of various amounts of Pi (62.5 to 1000 nM), EACA (0.125 mM to 2 mM) or no inhibitor. After 2.5 h the amount of fibrinolysis was determined by measuring the amount of 125I-fibrin dissolved in the supernatant. Means of duplicate observations are shown. […] Clots were formed as above in the presence of human plasminogen (2 uM) and a2AP (1 uM) or Pi (1 uM) and various amounts of tPA (0-10 nM). Clot dissolution was monitored in duplicate over 2 h in microtiter plate wells at A405 nm. […] Human plasma clots were mixed with various concentrations of Pi IgG, Pi Fab and chimeric Pi Fab (25 nM-400 nM) and plasmin was activated by urokinase. The amount of clot lysis was determined as described in Methods.\nFactor V cleavage. Human factor V (2 ug, IHFV, Innovative Research) was mixed with plasmin (0.05 ug) for 1 hr at RT in the presence of EACA (1 mM), Pi (5 ug) or a control monoclonal antibody (digoxin, 5 ug). […] Protein bands were detected by staining with Coomassie blue dye."}, "[2]": {"test_system": "plasmin-mediated fibrinolysis of human fibrin clots", "test": "Fibrinolysis of 125I-fibrin human plasma clots with tPA, EACA vs Pi", "type": "biochemical", "details": "tPA 5 nM, 2.5 h"}, "[3]": {"test_system": "fibrinolytic bleeding", "test": "Fibrinolytic bleeding assay in vivo (humanized tail bleeding model)", "design": "species or system mice", "details": "EACA 510 micromole/kg intravenously", "method": "Anesthetized mice were treated in a randomized, blinded fashion with saline (Control), Pi (100 nmole/kg) or EACA (510 micromole/kg) intravenously. Human plasminogen (100 nmole/kg) and plasminogen activator (80,000 IU/kg) were given over 60 min. Tail bleeding was initiated 40 min. after the infusion. Tails were pre-warmed for 5 mins in 3 mL of 37° C. saline and bleeding was monitored as described.36,37 N=5-6, Means±SE are shown. *p<0.05, **p<0.01; ns, not significant. Kruskal Wallis one way ANOVA, Dunn's corrections.\nFibrinolytic bleeding assays in vivo. Anesthetized mice were treated in a randomized, blinded fashion with saline (Control), Pi (100 nmole/kg) or EACA (510 micromole/kg). Human plasminogen (100 nmole/kg) and plasminogen activator (80,000 IU/kg) were given over 60 min. Tail bleeding started 40 min. after the infusion. Tails were pre-warmed for 5 mins in 3 mL of 37° C. saline as described.(27, 28).\nSuppression of fibrinolytic bleeding in vivo. The potential utility of the Pi for suppression of fibrinolytic bleeding was examined in vivo in randomized, blinded studies of surgical arterial and venous hemorrhage."}, "[4]": {"details": "in vivo; cited from earlier work"}, "[5]": {"molecular_target": "Plasmin (Homo sapiens, UniProt P00747)", "sequence (P00747 97-580 limits assumed)": "as the sequence (P00747 97-580 limits assumed) above", "sequence (P00747 581-810 limits assumed)": "as the sequence (P00747 581-810 limits assumed) above", "test": "Effect of mouse or chimeric Fab on plasmin activity, S2251", "type": "biochemical", "details": "plasmin 25 nM, Fab 0-200 nM, S2251 0.5 mM", "method": "FIGS. 2A-2D show comparative inhibition of plasmin activity by Pi EACA and a2AP. […] The percent residual activity of plasmin as a function of the log concentration of inhibitor is shown. […] Human plasmin (100 nM, Hematologic Technologies, Inc.) was mixed with or without Pi (50 nM) in the presence of the substrate S2251 (0.1 to 4 mM). The initial rate of substrate cleavage (6 min.) was monitored at A405. Data were plotted and analyzed using Michaelis-Menten kinetics by the Graphpad Prism Program. Means (duplicate observations) are shown and are representative of 4 separate experiments. […] The means of duplicate observations are shown. […] Plasmin (25 nM) was mixed with various concentrations (0-200 nM) of mouse Fab or chimeric Fab (cFab) and S2251 (0.5 mM) in TBS buffer pH 7.4. Plasmin activity was measured by the release of paranitroanilide product at A405 over time.\nThe effects of mouse or chimeric Fab on plasmin activity were examined. Plasmin (25 nM) was mixed with various concentrations (0-200 nM) of mouse Fab or chimeric Fab (cFab) and S2251 (0.5 mM) in TBS buffer pH 7.4. Plasmin activity was measured by the release of paranitroanilide product at A405 over time."}, "[6]": {"test_system": "human plasma clots", "test": "Clot lysis assay of Pi IgG, Fab and chimeric Fab, urokinase", "type": "biochemical", "details": "25 nM-400 nM, 30 min", "method": "FIGS. 4A-4D show comparative inhibition of factor V cleavage and human clot fibrinolysis (dissolution) by Pi, EACA and a2AP. […] The relative migration of molecular weight standards is shown (kDa). […] Human plasma was clotted with CaCl2 (10 mM) and thrombin (1 U/ml) in the presence of trace amounts of 1251 fibrinogen for 1 h at 37 deg. C. After washing in 1 ml of TBS pH 7.4, tPA (5 nM) was added in the presence of various amounts of Pi (62.5 to 1000 nM), EACA (0.125 mM to 2 mM) or no inhibitor. After 2.5 h the amount of fibrinolysis was determined by measuring the amount of 125I-fibrin dissolved in the supernatant. Means of duplicate observations are shown. […] Clots were formed as above in the presence of human plasminogen (2 uM) and a2AP (1 uM) or Pi (1 uM) and various amounts of tPA (0-10 nM). Clot dissolution was monitored in duplicate over 2 h in microtiter plate wells at A405 nm. […] The amount of clot lysis was determined as described in Methods.\nThe effects of Pi IgG, Fab or chimeric Fab were also compared in a clot lysis assay in microtiter plates. […] C. was monitored at 405 nm. The percent clot dissolution at 30 min. was determined as the percent change in peak turbidity from baseline=100%×(peak absorbance−30 min. absorbance)/(peak absorbance−baseline absorbance)."}}, "data": [{"molecule": "NCCCCCC(=O)O", "note": "[EACA, epsilon amino caproic acid, reference compound]", "values": [{"measurement": "effect on Factor V cleavage by plasmin", "setting": "[1]", "value": "slightly diminished Factor V cleavage"}, {"measurement": "fold less potent than the Pi in suppressing fibrinolysis", "setting": "[2]", "value": "approximately 5,000 fold"}, {"measurement": "effect on fibrinolysis of human fibrin clots", "setting": "[2]; Pi 62.5 to 1000 nM, EACA 0.125 mM to 2 mM", "value": "diminished fibrinolysis"}, {"measurement": "effect on bleeding time vs saline", "setting": "[3]", "value": "did not reduce bleeding time or blood loss"}, {"measurement": "effect on blood loss vs saline", "setting": "[3]", "value": "did not reduce bleeding time or blood loss"}]}, {"molecule": "NC[C@H]1CC[C@H](C(=O)O)CC1", "note": "[Tranexamic acid, tranexamic acid]", "values": [{"measurement": "excreted via the urine unchanged", "setting": "[4]", "value": 95, "unit": "%"}]}, {"molecule": "B1", "values": [{"measurement": "inhibition of plasmin activity with tripeptide substrate", "setting": "[5]", "value": "potently inhibited plasmin activity"}, {"measurement": "inhibition of clot lysis by Pi molecular forms", "setting": "[6]", "value": "effectively inhibited clot lysis"}]}]}
